The target in this experiment is BACE1 (Homo sapiens (Human), UniProt P56817). In words: Cellular Aβ-lowering assay (Abeta 40 AlphaLISA) in HEK293 APP cells. The format is cell-based. Particulars: Aβ 40 in culture supernatant after 18-20 hrs incubation. The method, then: Cellular Aβ-Lowering Assay:
The Abeta 40 AlphaLISA Assay can be used. The HEK293 APP cells were seeded in 96 well Microtiter plates in cell culture medium (Iscove's, plus 10% (v/v) fetal bovine serum, penicillin/streptomycin) to about 80% confluency and the compounds were added at a 3× concentration in ⅓ volume of culture medium (final DMSO concentration was kept at 1% v/v). After 18-20 hrs incubation at 37° C. and 5% CO2 in a humidified incubator, the culture supernatants were harvested for the determination of Aβ 40 concentrations using Perkin-Elmer Human Amyloid beta 1-40 (high specificity) Kit (Cat # AL275C).
In a Perkin-Elmer White Optiplate-384 (Cat #6007290), 2 ul culture supernatants were combined with 2 μl of a 10× AlphaLISA Anti-hAβAcceptor beads+Biotinylated Antibody Anti-Aβ 1-40 Mix (50 μg/mL/5 nM). After 1 hour room temperature incubation, 16 μl of a 1.25× preparation of Streptavidin (SA) Donor beads (25 μg/mL) were added and incubated for 30 minutes in the Dark. Light Emission at 615 nm was then recorded using EnVision-Alpha Reader. Levels of A β 40 in the culture supernatants were calculated as percentage of maximum signal (cells treated with 1% DMSO without inhibitor). The IC50 values were calculated using the Excel XLfit software.
(In general: In Alpha technology, singlet oxygen from a donor bead excites a nearby acceptor bead.)

SMILES strings stand for the structures.

Chain of BACE1 (P56817 46-501): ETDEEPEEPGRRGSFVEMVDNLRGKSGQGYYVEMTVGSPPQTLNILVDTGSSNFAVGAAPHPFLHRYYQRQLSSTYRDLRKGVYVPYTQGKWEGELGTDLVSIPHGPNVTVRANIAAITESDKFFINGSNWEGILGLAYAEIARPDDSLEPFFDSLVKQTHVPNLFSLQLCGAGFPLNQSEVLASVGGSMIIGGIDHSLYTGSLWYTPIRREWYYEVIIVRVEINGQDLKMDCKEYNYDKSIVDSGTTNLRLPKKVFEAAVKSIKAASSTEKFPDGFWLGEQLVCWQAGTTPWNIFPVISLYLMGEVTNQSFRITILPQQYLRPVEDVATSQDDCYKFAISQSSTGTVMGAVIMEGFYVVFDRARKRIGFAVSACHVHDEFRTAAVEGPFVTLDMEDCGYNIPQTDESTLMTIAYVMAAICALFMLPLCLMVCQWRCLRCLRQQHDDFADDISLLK

For orientation: IC50 means the concentration needed to halve the response being measured. As for `C[C@@]1(c2nc(NC(=O)c3ccc(C#N)cn3)ccc2F)CS2(=O)=NCCCCN2C(N)=N1` (stereo in doubt) [Example 1, 5-Cyano-pyridine-2-carboxylic acid [6-((3R,4aR)-1-amino-3-methyl-4a-oxo-3,4,6,7,8,9-hexahydro-4aλ^6-thia-2,5,9a-triaza-benzocyclohepten-3-yl)-5-fluoro-pyridin-2-yl]-amide], 86 nM corresponded to half-maximal inhibition (IC50).

`C[C@@]1(c2nc(NC(=O)c3ccc(C#N)cn3)ccc2F)CS2(=O)=NCCCCN2C(N)=N1` (stereo in doubt) [Example 2, 5-Cyano-pyridine-2-carboxylic acid [6-((3R,4aS)-1-amino-3-methyl-4a-oxo-3,4,6,7,8,9-hexahydro-4aλ^6-thia-2,5,9a-triaza-benzocyclohepten-3-yl)-5-fluoro-pyridin-2-yl]-amide] gave an IC50 of 49 nM.

Compound `Cc1cc(C#N)cnc1C(=O)Nc1ccc(F)c([C@]2(C)C[S@@]3(=O)=NCCCCN3C(N)=N2)n1` [Example 3] had a half-maximal inhibitory concentration (IC50) of 36 nM.

The compound `N#Cc1ccc(C(=O)Nc2ccc(F)c([C@]3(CF)C[S@]4(=O)=NCCCCN4C(N)=N3)n2)nc1` [Example 4, N-[6-[(1S,10S)-8-Amino-10-(fluoromethyl)-1-oxo-1λ^6-thia-2,7,9-triazabicyclo[5.4.0]undeca-1,8-dien-10-yl]-5-fluoropyridin-2-yl]-5-cyanopyridine-2-carboxamide] showed an IC50 of 96 nM.

`N#Cc1ccc(C(=O)Nc2ccc(F)c([C@]3(CF)C[S@@]4(=O)=NCCCCN4C(N)=N3)n2)nc1` [Example 5, N-[6[(1R,10S)-8-Amino-10-(fluoromethyl)-1-oxo-1λ^6-thia-2,7,9-triazabicyclo[5.4.0]undeca-1,8-dien-10-yl]-5-fluoropyridin-2-yl]-5-cyanopyridine-2-carboxamide] registered an IC50 of 28 nM.

The record behind these values is patent US10829500B2, “Pyridyl-triazabicycles” (Hoffmann-La Roche Inc., priority 2014, dated 2020).
